{
  "source": "patent US6313090A",
  "about": "“Methods for treating parasitic infection using thiopeptides” (The United States of America as represented by the …, priority 2000, dated 2001)",
  "tested_on": "MDBKF5D2 cell monolayers",
  "experiment": "Toxicity testing assay (MTS/PMS, OD 490 nm)",
  "type": "cell-based",
  "description": "(§1) Toxicity Testing Assay. 200 μl of medium containing drug at the above-mentioned concentrations and positive control preparations [paromomycin/DMSO (2 mg/ml/0.2%)] were introduced into two wells of a 96 well plate containing confluent MDBKF5D2 cell monolayers (ATCC accession number CCL-22) infected with intact C. parvum GCH1 oocysts (5.0×10^4 per well) (43) and two wells without monolayers. The drug was incubated on the monolayers at 37° C. and 8% CO2. At 48 hours, MTS (Owen's solution) and PMS were added to each well at concentrations of 333 μg/ml and 25 μM respectively. The plate was returned to the incubator in the dark to develop for two hours. At two hours, 100 μl of each supernatant was transferred to a new microtiter plate and the optical density (OD) was read in an ELISA plate reader at 490 nm.\nPercent toxicity was calculated by subtracting the mean drug OD from the medium OD, divided by the medium OD, all of which was then multiplied by 100, as shown in the equation below. Cytotoxicity scores were assigned as follows: 0-5% toxicity=0, 6-25% toxicity=1, 26-50% toxicity=2, 51-75% toxicity=3, and 76-100% toxicity=4. As a standard, cytotoxicity scores of 0 or, 1 were considered acceptable levels of toxicity. Toxicity scores of 2, 3, or 4 were considered as high levels of toxicity to the cell monolayer. [formula]\nas §1, with “containing drugs” for “containing drug”, “monolayers” for “monolayers (ATCC accession number CCL-22)”, “well)” for “well) (43)”, “and 25μM” for “and 25 μM”\nPercent toxicity was calculated by subtracting the mean drug OD from the medium OD, divided by the medium OD, all of which was then multiplied by 100, as shown in the equation below. Cytotoxicity scores were assigned as follows: 0-5% toxicity=0, 6-25% toxicity=1, 26-50% toxicity=2, 51-75% toxicity=3, and 76-100% toxicity=4. As a standard, cytotoxicity scores of 0 or 1 were considered acceptable levels of toxicity. Toxicity scores of 2, 3, or 4 were considered as high levels of toxicity to the cell monolayer. [formula]\nas §1, with “monolayers” for “monolayers (ATCC accession number CCL-22)”, “well)” for “well) (43)”, “25μM” for “25 μM”",
  "key": {"[1]": {"conditions": "Table 4 Washed at 4 hours, 100 μg/ml"}, "[2]": {"conditions": "Table 4 Washed at 4 hours, 200 μg/ml"}, "[3]": {"conditions": "Table 4 Washed at 4 hours, 400 μg/ml"}, "[4]": {"conditions": "Table 4 Washed at 4 hours, 800 μg/ml"}, "[5]": {"conditions": "Table 5, 800 μg/ml, drug added at 0 hrs"}, "[6]": {"conditions": "Table 5, 800 μg/ml, drug added at 2 hrs"}, "[7]": {"conditions": "Table 5, 800 μg/ml, drug added at 4 hrs"}, "[8]": {"conditions": "Table 5, 800 μg/ml, drug added at 8 hrs"}, "[9]": {"conditions": "Table 5, 800 μg/ml, drug added at 24 hrs"}},
  "data": [
    {"smiles": "C=C(NC(=O)C(=C)NC(=O)c1csc(C2=N[C@@H]3c4csc(n4)[C@H]4NC(=O)c5csc(n5)[C@H]([C@](C)(O)[C@@H](C)O)NC(=O)[C@H]5CSC(=N5)/C(=C/C)NC(=O)[C@H]([C@@H](C)O)NC(=O)c5csc(n5)[C@]3(CC2)NC(=O)[C@H](C)NC(=O)C(=C)NC(=O)[C@H](C)NC(=O)[C@H]([C@@H](C)CC)N[C@@H]2C=Cc3c([C@H](C)O)cc(nc3[C@H]2O)C(=O)O[C@@H]4C)n1)C(N)=O", "note": "[Thiostrepton, thiostrepton]", "values": [
      {"measurement": "Tox. O.D.", "setting": "Table 1, 1 μg/ml", "value": ".941"},
      {"measurement": "Toxicity Percent", "setting": "Table 1, 1 μg/ml", "value": 14.50, "unit": "%"},
      {"measurement": "Toxicity Score", "setting": "Table 1, 1 μg/ml", "value": "1 (6-25% toxicity=1)"},
      {"measurement": "Tox. O.D.", "setting": "Table 1, 10 μg/ml", "value": ".991"},
      {"measurement": "Toxicity Percent", "setting": "Table 1, 10 μg/ml", "value": 9.95, "unit": "%"},
      {"measurement": "Toxicity Score", "setting": "Table 1, 10 μg/ml", "value": "1 (6-25% toxicity=1)"},
      {"measurement": "Tox. O.D.", "setting": "Table 1, 100 μg/ml", "value": ".994"},
      {"measurement": "Toxicity Percent", "setting": "Table 1, 100 μg/ml", "value": 9.64, "unit": "%"},
      {"measurement": "Toxicity Score", "setting": "Table 1, 100 μg/ml", "value": "1 (6-25% toxicity=1)"},
      {"measurement": "Tox. O.D.", "setting": "Table 1, .1 μg/ml", "value": ".912"},
      {"measurement": "Toxicity Percent", "setting": "Table 1, .1 μg/ml", "value": 17.14, "unit": "%"},
      {"measurement": "Toxicity Score", "setting": "Table 1, .1 μg/ml", "value": "1 (6-25% toxicity=1)"},
      {"measurement": "Tox. O.D.", "setting": "Table 2, 100 μg/ml", "value": ".915"},
      {"measurement": "Toxicity Percent", "setting": "Table 2, 100 μg/ml", "value": 9.14, "unit": "%"},
      {"measurement": "Toxicity Score", "setting": "Table 2, 100 μg/ml", "value": "1 (6-25% toxicity=1)"},
      {"measurement": "Tox. O.D.", "setting": "Table 2, 200 μg/ml", "value": ".820"},
      {"measurement": "Toxicity Percent", "setting": "Table 2, 200 μg/ml", "value": 18.62, "unit": "%"},
      {"measurement": "Toxicity Score", "setting": "Table 2, 200 μg/ml", "value": "1 (6-25% toxicity=1)"},
      {"measurement": "Tox. O.D.", "setting": "Table 2, 400 μg/ml", "value": ".799"},
      {"measurement": "Toxicity Percent", "setting": "Table 2, 400 μg/ml", "value": 20.71, "unit": "%"},
      {"measurement": "Toxicity Score", "setting": "Table 2, 400 μg/ml", "value": "1 (6-25% toxicity=1)"},
      {"measurement": "Tox. O.D.", "setting": "Table 2, 800 μg/ml", "value": ".676"},
      {"measurement": "Toxicity Percent", "setting": "Table 2, 800 μg/ml", "value": 32.87, "unit": "%"},
      {"measurement": "Toxicity Score", "setting": "Table 2, 800 μg/ml", "value": "2 (26-50% toxicity=2)"},
      {"measurement": "Tox. O.D.", "setting": "Table 3 Unwashed, 100 μg/ml", "value": ".969"},
      {"measurement": "Toxicity Percent", "setting": "Table 3 Unwashed, 100 μg/ml", "value": 7.10, "unit": "%"},
      {"measurement": "Toxicity Score", "setting": "Table 3 Unwashed, 100 μg/ml", "value": "1 (6-25% toxicity=1)"},
      {"measurement": "Tox. O.D.", "setting": "Table 3 Unwashed, 200 μg/ml", "value": ".827"},
      {"measurement": "Toxicity Percent", "setting": "Table 3 Unwashed, 200 μg/ml", "value": 20.67, "unit": "%"},
      {"measurement": "Toxicity Score", "setting": "Table 3 Unwashed, 200 μg/ml", "value": "1 (6-25% toxicity=1)"},
      {"measurement": "Tox. O.D.", "setting": "Table 3 Unwashed, 400 μg/ml", "value": ".788"},
      {"measurement": "Toxicity Percent", "setting": "Table 3 Unwashed, 400 μg/ml", "value": 24.41, "unit": "%"},
      {"measurement": "Toxicity Score", "setting": "Table 3 Unwashed, 400 μg/ml", "value": "1 (6-25% toxicity=1)"},
      {"measurement": "Tox. O.D.", "setting": "Table 3 Unwashed, 800 μg/ml", "value": ".739"},
      {"measurement": "Toxicity Percent", "setting": "Table 3 Unwashed, 800 μg/ml", "value": 29.11, "unit": "%"},
      {"measurement": "Toxicity Score", "setting": "Table 3 Unwashed, 800 μg/ml", "value": "2 (26-50% toxicity=2)"},
      {"measurement": "Tox. O.D.", "setting": "[1]", "value": ".969"},
      {"measurement": "Toxicity Percent", "setting": "[1]", "value": 6.96, "unit": "%"},
      {"measurement": "Toxicity Score", "setting": "[1]", "value": "1 (6-25% toxicity=1)"},
      {"measurement": "Tox. O.D.", "setting": "[2]", "value": ".827"},
      {"measurement": "Toxicity Percent", "setting": "[2]", "value": 20.56, "unit": "%"},
      {"measurement": "Toxicity Score", "setting": "[2]", "value": "1 (6-25% toxicity=1)"},
      {"measurement": "Tox. O.D.", "setting": "[3]", "value": ".788"},
      {"measurement": "Toxicity Percent", "setting": "[3]", "value": 24.30, "unit": "%"},
      {"measurement": "Toxicity Score", "setting": "[3]", "value": "1 (6-25% toxicity=1)"},
      {"measurement": "Tox. O.D.", "setting": "[4]", "value": ".739"},
      {"measurement": "Toxicity Percent", "setting": "[4]", "value": 29.01, "unit": "%"},
      {"measurement": "Toxicity Score", "setting": "[4]", "value": "2 (26-50% toxicity=2)"},
      {"measurement": "Tox. O.D.", "setting": "[5]", "value": ".783"},
      {"measurement": "Toxicity Percent", "setting": "[5]", "value": 22.91, "unit": "%"},
      {"measurement": "Toxicity Score", "setting": "[5]", "value": "1 (6-25% toxicity=1)"},
      {"measurement": "Tox. O.D.", "setting": "[6]", "value": ".577"},
      {"measurement": "Toxicity Percent", "setting": "[6]", "value": 43.15, "unit": "%"},
      {"measurement": "Toxicity Score", "setting": "[6]", "value": "2 (26-50% toxicity=2)"},
      {"measurement": "Tox. O.D.", "setting": "[7]", "value": ".638"},
      {"measurement": "Toxicity Percent", "setting": "[7]", "value": 37.14, "unit": "%"},
      {"measurement": "Toxicity Score", "setting": "[7]", "value": "2 (26-50% toxicity=2)"},
      {"measurement": "Tox. O.D.", "setting": "[8]", "value": ".786"},
      {"measurement": "Toxicity Percent", "setting": "[8]", "value": 22.56, "unit": "%"},
      {"measurement": "Toxicity Score", "setting": "[8]", "value": "1 (6-25% toxicity=1)"},
      {"measurement": "Tox. O.D.", "setting": "[9]", "value": ".749"},
      {"measurement": "Toxicity Percent", "setting": "[9]", "value": 26.26, "unit": "%"},
      {"measurement": "Toxicity Score", "setting": "[9]", "value": "2 (26-50% toxicity=2)"},
      {"measurement": "Tox. O.D.", "setting": "Table 6, 100 μg/ml", "value": 1.348},
      {"measurement": "Toxicity Percent", "setting": "Table 6, 100 μg/ml", "value": 18.15, "unit": "%"},
      {"measurement": "Toxicity Score", "setting": "Table 6, 100 μg/ml", "value": "1 (6-25% toxicity=1)"},
      {"measurement": "Tox. O.D.", "setting": "Table 6, 200 μg/ml", "value": 1.324},
      {"measurement": "Toxicity Percent", "setting": "Table 6, 200 μg/ml", "value": 19.61, "unit": "%"},
      {"measurement": "Toxicity Score", "setting": "Table 6, 200 μg/ml", "value": "1 (6-25% toxicity=1)"},
      {"measurement": "Tox. O.D.", "setting": "Table 6, 400 μg/ml", "value": 1.146},
      {"measurement": "Toxicity Percent", "setting": "Table 6, 400 μg/ml", "value": 30.45, "unit": "%"},
      {"measurement": "Toxicity Score", "setting": "Table 6, 400 μg/ml", "value": "2 (26-50% toxicity=2)"},
      {"measurement": "Tox. O.D.", "setting": "Table 6, 800 μg/ml", "value": ".890"},
      {"measurement": "Toxicity Percent", "setting": "Table 6, 800 μg/ml", "value": 45.96, "unit": "%"},
      {"measurement": "Toxicity Score", "setting": "Table 6, 800 μg/ml", "value": "2 (26-50% toxicity=2)"},
      {"measurement": "toxicity to cells", "setting": "in vitro, summary statement", "value": "little toxicity to cells"}
    ]}
  ]
}
